Assay [1] addresses Glutamate NMDA receptor; GRIN1/GRIN2B (Homo sapiens) (UniProt Q05586+Q13224). Description: Antagonist activity at GluN1/GluN2B receptor (unknown origin) overexpressed in CHO cells assessed as inhibition of Ca2+ flux incubated for 24 hrs in presence of glycine/L-glutamate by FLIPR assay. Type of assay: cell-based.
Assay [2] deals with Glutamate NMDA receptor; GRIN1/GRIN2A (Homo sapiens) (UniProt Q05586+Q12879). In words: Antagonist activity at GluN1/GluN2A receptor (unknown origin) overexpressed in CHO cells assessed as inhibition of Ca2+ flux incubated for 24 hrs in presence of glycine/L-glutamate by FLIPR assay. Type of assay: cell-based.
Assay [3] deals with Glutamate NMDA receptor (Rattus norvegicus) (UniProt P35439+Q00959+Q00960+Q00961+Q62645+Q8VHN2+Q9R1M7). In words: Displacement of [3H]TCP from Wistar rat cerebral cortex NMDAR at 10 uM incubated for 1.5 hrs. The format is tissue-based.
Assay [4] concerns the target T1, 5-hydroxytryptamine receptor 1A (Homo sapiens) (UniProt P08908).
T1 sequence (whole entry): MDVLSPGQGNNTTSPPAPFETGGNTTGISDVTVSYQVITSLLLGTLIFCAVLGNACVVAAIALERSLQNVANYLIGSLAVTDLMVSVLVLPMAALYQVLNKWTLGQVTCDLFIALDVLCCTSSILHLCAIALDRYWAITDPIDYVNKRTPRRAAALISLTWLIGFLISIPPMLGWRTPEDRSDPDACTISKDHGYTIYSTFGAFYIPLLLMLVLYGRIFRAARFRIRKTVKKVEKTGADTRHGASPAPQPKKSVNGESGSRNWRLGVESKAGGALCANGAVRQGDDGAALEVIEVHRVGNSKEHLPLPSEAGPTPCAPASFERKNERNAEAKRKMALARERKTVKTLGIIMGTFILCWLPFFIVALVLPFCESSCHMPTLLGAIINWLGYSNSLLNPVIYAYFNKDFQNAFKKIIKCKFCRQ
In words: Displacement of [3H]8-OH-DPAT from recombinant human 5-HT1A receptor expressed in CHO-K1 cells at 0.3 to 3 uM incubated for 1 hr. The format is cell-based. Conditions: dose 0.3-3 µM.

Assay [5] has as its target Sodium-dependent serotonin transporter (Homo sapiens) (UniProt P31645). Description: Displacement of [3H]paroxetine from recombinant human SERT expressed in HEK293 cells at 1 to 10 uM incubated for 1 hr. The format is cell-based. Particulars: dose 1-10 µM.
For assay [6], the target named is Ionotropic glutamate receptor NMDA 1/2C (Homo sapiens) (UniProt Q05586+Q14957). Description: Antagonist activity at GluN1/GluN2C receptor (unknown origin) overexpressed in CHO cells assessed as inhibition of Ca2+ flux incubated for 24 hrs in presence of glycine/L-glutamate by FLIPR assay. The format is cell-based.
Assay [7] has as its target Ionotropic glutamate receptor NMDA 1/2D (Homo sapiens) (UniProt Q05586+O15399). Description: Antagonist activity at GluN1/GluN2D receptor (unknown origin) overexpressed in CHO cells assessed as inhibition of Ca2+ flux incubated for 24 hrs in presence of glycine/L-glutamate by FLIPR assay. Type of assay: cell-based.
For assay [8], the target named is Sodium-dependent serotonin transporter (Homo sapiens) (UniProt P31645). Description: Displacement of [3H]paroxetine from recombinant human SERT expressed in HEK293 cells at 10 uM incubated for 1 hr. The format is cell-based.
A short description of assay [9]: Selectivity index, ratio of displacement of [3H]TCP from Wistar rat cerebral cortex NMDAR to displacement of [3H]diprenorphine from recombinant human mu opioid receptor expressed in CHO-K1 cells. Type of assay: cell-based.
For assay [10], the target named is Sigma non-opioid intracellular receptor 1 (Homo sapiens) (UniProt Q99720). In words: Displacement of [3H]pentazocine from sigma 1 receptor in human Jurkat cells at 0.3 to 3 uM incubated for 2 hrs. The format is cell-based. Particulars: dose 0.3-3 µM.
For assay [11], the target named is Histamine H1 receptor (Homo sapiens) (UniProt P35367). In words: Displacement of [3H]pyrilamine from recombinant human histamine H1 receptor expressed in CHO-K1 cells at 10 to 30 uM incubated for 3 hrs. Conditions: dose 10-30 µM. Type of assay: cell-based.

Structures are written as SMILES. The source made the active and inactive calls. No cut-off for these calls is given here.

Chain of Sodium-dependent serotonin transporter (Homo sapiens) (P31645 whole entry, looked up): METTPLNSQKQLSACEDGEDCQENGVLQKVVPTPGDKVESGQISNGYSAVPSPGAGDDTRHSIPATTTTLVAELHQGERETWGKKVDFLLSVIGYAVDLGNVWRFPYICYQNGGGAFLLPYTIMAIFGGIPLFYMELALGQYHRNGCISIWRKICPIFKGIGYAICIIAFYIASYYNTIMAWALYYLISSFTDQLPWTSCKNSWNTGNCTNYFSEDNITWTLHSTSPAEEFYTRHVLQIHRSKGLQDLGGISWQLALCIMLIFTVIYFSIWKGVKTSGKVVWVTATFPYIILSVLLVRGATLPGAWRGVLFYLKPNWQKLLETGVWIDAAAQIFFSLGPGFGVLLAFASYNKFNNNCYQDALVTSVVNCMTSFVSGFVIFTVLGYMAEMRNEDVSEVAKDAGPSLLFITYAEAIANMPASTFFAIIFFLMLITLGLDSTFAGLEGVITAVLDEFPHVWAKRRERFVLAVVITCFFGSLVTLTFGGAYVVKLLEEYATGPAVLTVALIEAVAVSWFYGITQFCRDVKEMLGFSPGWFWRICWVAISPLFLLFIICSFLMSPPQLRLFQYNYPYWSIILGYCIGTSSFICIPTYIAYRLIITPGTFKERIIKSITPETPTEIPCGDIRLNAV
Chain of Histamine H1 receptor (Homo sapiens) (P35367 whole entry): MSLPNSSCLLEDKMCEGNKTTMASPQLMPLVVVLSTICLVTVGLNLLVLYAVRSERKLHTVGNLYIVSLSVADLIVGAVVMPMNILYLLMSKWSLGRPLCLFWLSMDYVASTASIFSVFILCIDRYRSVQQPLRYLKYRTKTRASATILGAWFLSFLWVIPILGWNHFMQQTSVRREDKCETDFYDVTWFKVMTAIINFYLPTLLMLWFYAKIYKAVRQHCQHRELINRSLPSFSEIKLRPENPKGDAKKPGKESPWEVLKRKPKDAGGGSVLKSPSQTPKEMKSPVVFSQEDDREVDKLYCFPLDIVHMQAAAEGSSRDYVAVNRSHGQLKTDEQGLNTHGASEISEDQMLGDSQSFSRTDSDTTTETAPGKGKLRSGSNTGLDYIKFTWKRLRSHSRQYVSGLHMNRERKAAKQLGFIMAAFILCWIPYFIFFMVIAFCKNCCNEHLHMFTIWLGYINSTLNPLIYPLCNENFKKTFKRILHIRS
Chain of Sigma non-opioid intracellular receptor 1 (Homo sapiens) (Q99720 whole entry): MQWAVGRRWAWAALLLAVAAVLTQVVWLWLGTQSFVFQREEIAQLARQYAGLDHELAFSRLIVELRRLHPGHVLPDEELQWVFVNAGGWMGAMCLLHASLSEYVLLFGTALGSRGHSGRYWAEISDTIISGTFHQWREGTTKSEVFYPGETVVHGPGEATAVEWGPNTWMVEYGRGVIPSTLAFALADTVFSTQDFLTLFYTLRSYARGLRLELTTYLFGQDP

Regarding `CCC1=[N+](C)[C@H](C)CC1(c1ccccc1)c1ccccc1`, the inhibition result in assay [1] and in assay [2] was “inactive” each time.
Take `CC[C@@H](O)C(C[C@H](C)N)(c1ccccc1)c1ccccc1`: the Activity entry in assay [3] (filed as antagonist) is recorded as “Active; Compound Activity Comparable To (S)-Methadone”. Further, the result in [4] was inactive. The outcome in [5] was Active.
Consider `CCC1=[N+](C)[C@@H](C)CC1(c1ccccc1)c1ccccc1`, for which the inhibition entry in [6], in [1], in [2] and in assay [7] was “inactive” in each case.
As to `CC[C@@H](O)C(C[C@@H](C)NC)(c1ccccc1)c1ccccc1`, the outcome in assay [8] and in assay [3] (filed as antagonist) was Active. Further, the result in assay [4] was inactive. Also, the Ratio pKi in assay [9] came out at 0.83.
`C[C@@H]1CC(c2ccccc2)(c2ccccc2)C(=O)N1C`: the inhibition result in assay [6], in [1], in assay [2] and in [7] was “inactive” each time.
For the molecule `C[C@H]1CC(c2ccccc2)(c2ccccc2)C(=O)N1C`, the inhibition result in assay [6], in assay [1], in assay [2] and in [7] was “inactive” in each case.
On to `CCC1=N[C@H](C)CC1(c1ccccc1)c1ccccc1`, for which the result in assay [3] and in assay [4] was inactive.
Consider `CCC(=O)C(C[C@H](C)N(C)C)(c1ccccc1)c1ccccc1`, for which the result in [3] (filed as antagonist) and in assay [4] was Active.
For the molecule `CC[C@H](O)C(C[C@@H](C)NC)(c1ccccc1)c1ccccc1`, the outcome in assay [8] and in assay [3] (filed as antagonist) was Active. Besides, in assay [4], the result was inactive. Also, in assay [9], the Ratio pKi came out at 0.98.
Consider `C[C@@H](CC(C(=O)O)(c1ccccc1)c1ccccc1)N(C)C`, for which the inhibition entry in assay [6], in [1], in [2] and in assay [7] was “inactive” in each case.
As for `CC[C@@H](O)C(C[C@H](C)N(C)C)(c1ccccc1)c1ccccc1`, the inhibition result in assay [6], in assay [1] and in assay [7] was “inactive” each time.
Regarding `CC[C@H](O)C(C[C@@H](C)N(C)C)(c1ccccc1)c1ccccc1`, in [1], the inhibition result was “inactive”.
With `C[C@H](CC(C(=O)O)(c1ccccc1)c1ccccc1)N(C)C`, the inhibition entry in assay [6], in assay [1], in assay [2] and in assay [7] was “inactive” in each case.
Consider `CC[C@H](O)C(C[C@H](C)NC)(c1ccccc1)c1ccccc1`, for which the Activity result is “Active; Compound Activity Comparable To (S)-Methadone” in assay [3] (filed as antagonist) and “Active; Compound Displayed Significant Activity Like (S)-Methadone” in [11]. Also, the result in assay [4] was inactive. The outcome in assay [10] was Active.
On to `CC[C@H](O)C(C[C@@H](C)N)(c1ccccc1)c1ccccc1`, for which the result in assay [3] (filed as antagonist) was Active. The outcome in [4] was inactive.
For `CC[C@H](O)C(C[C@H](C)N)(c1ccccc1)c1ccccc1`, the outcome in [3] (filed as antagonist) and in assay [5] was Active. For the same molecule, the outcome in assay [4] was inactive.

(Values after ChEMBL document CHEMBL6115009.)
